According to PMC6925736, “Development of a HPLC-MS/MS Method to Determine the 13 Elements of Semen Cuscutae and Application to a Pharmacokinetic Study in Rats” (Evidence-based Complementary and Alternative Medicine : eCAM, 2019):

Key:
[1] = Pharmacokinetic study in rats after oral administration of Semen Cuscutae extract (HPLC-MS/MS of plasma); format: in vivo, Sprague–Dawley rats; settings: oral Semen Cuscutae extract 13 g/kg; for AUC: read-out: AUC(0-tn); for plasma concentration after 15 minutes of intragastric administration: LLOQ 1 ng/mL
Experimental: 20 μL of methanol, 20 μL of IS (liquiritin, 200 ng/mL) and 20 μL of formic acid were added to 100 μL of plasma sample and then vortex-mixed. The mixture was extracted with 800 μL of acetonitrile by vortexing for 3 min. After centrifugation at 14000 rpm for 10 min, the supernatant was transferred to a clean glass tube and dried with nitrogen. The residue was reconstituted in 100 μL of methanol and then centrifuged at 14000 rpm for 10 min. 5 μL of supernatant was injected into the LC–MS/MS system for analysis.
Six Sprague–Dawley rats (SPF, 200 ± 10 g, male) were purchased from HFK Laboratory Animal Technology Co., Ltd. The rats were housed in a standard laboratory condition (12 h dark-light cycle; temperature was 25°C ± 2°C and humidity was kept 50 ± 5%) and fed standard dry pellet diet and water for one week for acclimatization. Before the experiments, the rats were in fasting state for 12 h, with free access to water. The Semen Cuscutae extracts were dissolved in 0.5% carboxymethyl cellulose-sodium, prepared into suspension and gavage to the rats at a dose of 13 g/kg. Approximately 200 μL of rat blood samples was collected from the orbital venous plexus at 0, 0.03, 0.08, 0.17, 0.25, 0.5, 1, 2, 4, 6, 8, 10, 12, 24, 36, and 48 h after oral administration into 1.5 mL heparinized centrifuge tube. After centrifugation at 7000 rpm for 10 min immediately, the supernatant was collected into a new centrifuge tube and stored at −70°C until analysis.
Pharmacokinetic parameters (Cmax, t1/2, Tmax, AUC(0-tn), and AUC(0-∞)) were obtained using the software “Drug and Statistics 3.0” (DAS 3.0) (Medical College of Wannan, China).

[2] = Stability of analytes in rat plasma QC samples under processing and storage conditions; format: in vitro ADME; settings: n = 6; for Measured concentration, room temperature for 4h / Measured concentration, three freeze-thaw / Measured concentration, −70°C for 21 days: rat plasma; for Measured concentration, autosampler for 12h: treated rat plasma sample
Experimental: The stability of the 13 analytes was evaluated by QC samples in different processing and storage conditions, including short-term stability (putting the analytes in ambient temperature for 4 h and storing analytes in autosampler for 12 h after treatment), long-term stability (storing the analytes at −70°C for 21 days) and subjecting analytes to three freeze-thaw cycles. All stability experiments were tested in six parallels with low, middle, and high concentrations.

[3] = male, Sprague-Dawley, rat, plasma, po, 13 g/kg, n = 6
[4] = male, Sprague-Dawley, rat plasma, n = 6

| Measured concentration, room temperature for 4h ([2]; spiked 2 ng/mL) | Measured concentration, three freeze-thaw ([2]; spiked 2 ng/mL) | Measured concentration, −70°C for 21 days ([2]; spiked 2 ng/mL) | Measured concentration, room temperature for 4h ([2]; spiked 25 ng/mL) | Measured concentration, three freeze-thaw ([2]; spiked 25 ng/mL) | Measured concentration, −70°C for 21 days ([2]; spiked 25 ng/mL) | Measured concentration, room temperature for 4h ([2]; spiked 250 ng/mL) | Measured concentration, three freeze-thaw ([2]; spiked 250 ng/mL) | Measured concentration, −70°C for 21 days ([2]; spiked 250 ng/mL) | Measured concentration, autosampler for 12h ([2]; spiked 2 ng/mL) | Measured concentration, autosampler for 12h ([2]; spiked 25 ng/mL) | Measured concentration, autosampler for 12h ([2]; spiked 250 ng/mL) | plasma concentration after 15 minutes of intragastric administration ([1]; rat plasma) | SMILES | half-life [1, 3] | AUC(0-inf) [1, 4] | Cmax [1, 4] | AUC [1, 4] | t 1/2 ([1]; rat plasma, n = 6) | other results |
| --- | --- | --- | --- | --- | --- | --- | --- | --- | --- | --- | --- | --- | --- | --- | --- | --- | --- | --- | --- |
| 2.1 ± 0.1 ng/mL | 2.1 ± 0.1 ng/mL | 2.1 ± 0.1 ng/mL | 27.7 ± 1.6 ng/mL | 28.1 ± 1.0 ng/mL | 26.6 ± 1.2 ng/mL | 258.4 ± 15.7 ng/mL | 268.6 ± 15.8 ng/mL | 253.6 ± 7.7 ng/mL | 2.1 ± 0.1 ng/mL | 26.6 ± 1.6 ng/mL | 253.1 ± 6.0 ng/mL |  | O=C(/C=C/c1ccc(O)c(O)c1)O[C@@H]1C[C@](O)(C(=O)O)C[C@@H](O)[C@H]1O [Chlorogenic acid] | < 1.5 h | 1000 ± 646 ng·h/mL | 35.5 ± 7.3 ng/mL | 995 ± 654 ng·h/mL | 1.02 ± 0.67 h | T max ([1]; rat plasma, n = 6): 0.22 ± 0.06 h; T max ([1]; rat plasma, n = 6, listed as chlorogenic acid): less than 1 h |
| 2.2 ± 0.2 ng/mL | 2.0 ± 0.2 ng/mL | 2.0 ± 0.1 ng/mL | 24.8 ± 0.3 ng/mL | 26.2 ± 1.6 ng/mL | 25.7 ± 0.8 ng/mL | 247.5 ± 6.3 ng/mL | 252.6 ± 7.5 ng/mL | 257.2 ± 6.4 ng/mL | 2.1 ± 0.2 ng/mL | 25.4 ± 2.5 ng/mL | 254.0 ± 4.9 ng/mL | lower than the LLOQ | O=c1c(O)c(-c2ccc(O)cc2)oc2cc(O)cc(O)c12 [Kaempferol] |  |  |  |  |  |  |
|  |  |  |  |  |  |  |  |  |  |  |  |  | C[C@@H]1O[C@@H](OC[C@H]2O[C@@H](Oc3c(-c4ccc(O)c(O)c4)oc4cc(O)cc(O)c4c3=O)[C@H](O)[C@@H](O)[C@@H]2O)[C@H](O)[C@H](O)[C@H]1O [Rutin] | > 7.5 h | 4790 ± 2240 ng·h/mL | 158 ± 84.1 ng/mL | 4460 ± 2270 ng·h/mL | 7.70 ± 0.90 h | Tmax [1, 3]: 10 ± 0.03 h; C max ([1]; rat plasma, n = 6): higher than that of other components; Measured concentration, room temperature for 4h ([2]; spiked 4 ng/mL): 3.9 ± 0.2 ng/mL; Measured concentration, three freeze-thaw ([2]; spiked 4 ng/mL): 4.0 ± 0.1 ng/mL; Measured concentration, −70°C for 21 days ([2]; spiked 4 ng/mL): 4.0 ± 0.1 ng/mL; Measured concentration, room temperature for 4h ([2]; spiked 50 ng/mL): 56.3 ± 2.3 ng/mL; Measured concentration, three freeze-thaw ([2]; spiked 50 ng/mL): 57.7 ± 1.0 ng/mL; Measured concentration, −70°C for 21 days ([2]; spiked 50 ng/mL): 52.7 ± 3.9 ng/mL; Measured concentration, room temperature for 4h ([2]; spiked 500 ng/mL): 505.7 ± 13.0 ng/mL; Measured concentration, three freeze-thaw ([2]; spiked 500 ng/mL): 513.1 ± 7.4 ng/mL; Measured concentration, −70°C for 21 days ([2]; spiked 500 ng/mL): 494.4 ± 8.8 ng/mL; Measured concentration, autosampler for 12h ([2]; spiked 4 ng/mL): 4.0 ± 0.2 ng/mL; Measured concentration, autosampler for 12h ([2]; spiked 50 ng/mL): 49.8 ± 2.7 ng/mL; Measured concentration, autosampler for 12h ([2]; spiked 500 ng/mL): 489.3 ± 14.2 ng/mL |
| 2.2 ± 0.1 ng/mL | 2.0 ± 0.1 ng/mL | 2.0 ± 0.1 ng/mL | 26.5 ± 0.5 ng/mL | 26.8 ± 1.6 ng/mL | 27.4 ± 0.9 ng/mL | 256.7 ± 11.5 ng/mL | 261.1 ± 8.2 ng/mL | 257.6 ± 5.1 ng/mL | 2.1 ± 0.1 ng/mL | 25.6 ± 1.0 ng/mL | 244.9 ± 6.3 ng/mL | lower than the LLOQ | O=c1cc(-c2ccc(O)c(O)c2)oc2cc(O)cc(O)c12 [Luteolin] |  |  |  |  |  |  |
